Where two headings read alike, the source gives them in different places.
Tests used:
Type in all cases: cell-based
[1] = tested on: HT-29 human colorectal adenocarcinoma cells; assay: cell proliferation assay, HT-29
Excerpt: (§1) In this Example, the warfarin neoglycosides of the invention were screened for anti-tumor activity in cell proliferation assays using the following tumor cells lines: A549—human lung adenocarcinoma; H1299—human lung adenocarcinoma (p53 null); HCT-15—human colorectal adenocarcinoma; HT-29—human colorectal adenocarcinoma; MCF7—human breast adenocarcinoma; NCI-H460—human lung adenocarcinoma; SF-268—human CNS adenocarcinoma; and SKOV-3—human ovarian adenocarcinoma.
(§2) All cell lines were maintained as previously reported (see Langenhan, J. M.; Peters, N. R.; Guzei, I. A.; Hoffmann, F. M.; Thorson, J. S. Proc. Natl. Acad. Sci. USA 2005, 102, 12305-12310, which is incorporated by reference herein). Cells were harvested using 0.25% trypsin and 0.1% EDTA and counted in a Cellometer Auto T4 cell counter (Nexcelom, Inc.) prior to dilution for assay plating. Cells were plated at a denity of 500 cells per well in 50 μL volumes in 384-well clear-bottom tissue culture plates (Corning-Costar, Inc.).
(§3) Compounds were added from the 384-well compound stock plates at a 1:100 dilution using a Biomek FX liquid handler equipped with a 384-channel head (Beckman Coulter, Inc.). The plates were incubated for 7 days at 37° C. in a 5% CO2 atmosphere prior to performing the assays. Calcein AM (acetoxymethyl ester) reagent and EthD-1 (30 μL, 10 μM CAM and 100 μM EthD-1) was added and the cells were incubated for 30 min at 37° C. […] resulting from incubation with Calcein AM and EthD-1 was read using a Safire-2 microplate reader at the appropriate wavelengths. To lyse the cells, 15 μL of CellTiter-Glo reagent (Promega Corporation, Inc.) was added and the cells were incubated for 10 min at room temperature with gentle agitation. The luminescence of each plate was re-read to confirm the observed inhibition.
(§4) IC50s for cell proliferation assays were determined for Calcein AM, the ratio of live/dead cells (Calcein AM/EthD-1), and CellTiter-Glo using XLfit 4.0 as previously described (see Langenhan, J. M.; Peters, N. R.; Guzei, I. A.; Hoffmann, F. M.; Thorson, J. S. Proc. Natl. Acad. Sci. USA 2005, 102, 12305-12310, which is incorporated by reference herein). The IC50 determined using the best fit curve for dosage response from any of the 3 assays is reported as the final IC50. The best fit curve is defined as the curve with the lowest standard error.

[2] = tested on: A549 human lung adenocarcinoma cells; assay: cell proliferation assay, A549; settings: read-out: A549 Lung (+p53)
Excerpt: as §1, §2, §3, §4

NCI/ADR-RES = assay: cell proliferation assay, NCI/ADR-RES; settings: Table 3 summary of most active compounds
Protocol: as §2, §3
as §4, with “IC50.” for “IC50. The best fit curve is defined as the curve with the lowest standard error.”

[3] = tested on: HCT-15 human colorectal adenocarcinoma cells; assay: cell proliferation assay, HCT-15; settings: for IC50: Table 3 summary of most active compounds, read-out: HCT15 Colorectal
Excerpt: as §1, §2, §3, §4

[4] = tested on: MCF7 human breast adenocarcinoma cells; assay: cell proliferation assay, MCF7
Excerpt: as §1, §2, §3
as §4, with “IC50.” for “IC50. The best fit curve is defined as the curve with the lowest standard error.”

[5] = tested on: SKOV-3 human ovarian adenocarcinoma cells; assay: cell proliferation assay, SKOV-3; settings: read-out: SKOV3 Ovarian
Excerpt: as §1, §2, §3, §4

[6] = tested on: NCI-H460 human lung adenocarcinoma cells; assay: cell proliferation assay, NCI-H460
Excerpt: as §1, §2, §3, §4

[7] = tested on: H1299 human lung adenocarcinoma (p53 null) cells; assay: cell proliferation assay, H1299; settings: Table 3 summary of most active compounds
Excerpt: as §1, §2, §3
as §4, with “IC50.” for “IC50. The best fit curve is defined as the curve with the lowest standard error.”

[8] = tested on: SF-268 human CNS adenocarcinoma cells; assay: cell proliferation assay, SF-268
Excerpt: as §1, §2, §3
as §4, with “IC50.” for “IC50. The best fit curve is defined as the curve with the lowest standard error.”

[9] = Table 3 summary of most active compounds, listed as L-xylose
[10] = Table 3 summary of most active compounds, listed as D-lyxose
[11] = Table 3 summary of most active compounds, listed as D-xylose
[12] = Table 3 summary of most active compounds, IC50, read-out: H729 Colorectal
[13] = Table 3 summary of most active compounds
[14] = Table 3 summary of most active compounds, IC50, read-out: SF268 Giloblast
[15] = Table 3 summary of most active compounds, listed as L-arabinose
[16] = Table 3 summary of most active compounds, listed as D-ribose
[17] = Table 3 summary of most active compounds, listed as L-ribose

CON(C(C)CC(c1ccccc1)c1c(O)c2ccccc2oc1=O)C1OCC(O)C(O)C1O (mixture of isomers) [WARF Analog 1]
IC50 ([1]; Table 3 summary of most active compounds, IC50, listed as L-xylose, read-out: H729 Colorectal): 37 µM | IC50 [2, 9]: 67 µM | IC50 (NCI/ADR-RES; listed as L-xylose): 50 µM | IC50 ([3]; listed as L-xylose): 14 µM | IC50 [4, 9]: 15 µM | IC50 [5, 9]: 45 µM | IC50 [6, 9]: > 100 µM | IC50 ([7]; listed as L-xylose): 30 µM

CON(C(C)CC(c1ccccc1)c1c(O)c2ccccc2oc1=O)C1OCC(O)C(O)C1O (mixture of isomers) [WARF Analog 6]
IC50 ([1]; Table 3 summary of most active compounds, IC50, listed as D-lyxose, read-out: H729 Colorectal): 52 µM | IC50 [2, 10]: 76 µM | IC50 (NCI/ADR-RES; listed as D-lyxose): 57 µM | level of activity, in words ([3]; HCT 15 colorectal cell lines, compared with all the neoglycosides tested): highest level of activity | IC50 ([3]; listed as D-lyxose): 7 µM | IC50 [5, 10]: 47 µM | IC50 ([8]; Table 3 summary of most active compounds, IC50, listed as D-lyxose, read-out: SF268 Giloblast): 39 µM | IC50 [6, 10]: > 100 µM

CON(C(C)CC(c1ccccc1)c1c(O)c2ccccc2oc1=O)C1OCC(O)C(O)C1O (mixture of isomers) [WARF Analog 9]
IC50 ([1]; Table 3 summary of most active compounds, IC50, listed as D-xylose, read-out: H729 Colorectal): 43 µM | IC50 [2, 11]: 40 µM | IC50 (NCI/ADR-RES; listed as D-xylose): 38 µM | IC50 ([3]; listed as D-xylose): 11 µM | IC50 [4, 11]: 12 µM | IC50 [5, 11]: 52 µM | IC50 ([8]; Table 3 summary of most active compounds, IC50, listed as D-xylose, read-out: SF268 Giloblast): 37 µM | IC50 [6, 11]: 99 µM | IC50 ([7]; listed as D-xylose): 27 µM

CON(C(C)CC(c1ccccc1)c1c(O)c2ccccc2oc1=O)C1CC(O)C(O)CO1 (mixture of isomers) [WARF Analog 11]
IC50 [1, 12]: > 100 µM | IC50 [2, 13]: > 100 µM | IC50 (NCI/ADR-RES): > 100 µM | IC50 [3]: 13 µM | IC50 [4, 13]: 78 µM | IC50 [5, 13]: > 100 µM | IC50 [8, 14]: > 100 µM | IC50 [6, 13]: > 100 µM | IC50 [7]: 92 µM

CON(C(C)CC(c1ccccc1)c1c(O)c2ccccc2oc1=O)C1OC(C)C(O)C(O)C1O (mixture of isomers) [WARF Analog 12]
IC50 ([1]; Table 3 summary of most active compounds, IC50, listed as L-fucose, read-out: H729 Colorectal): 80 µM | IC50 [2, 13]: > 100 µM | IC50 (NCI/ADR-RES): > 100 µM | IC50 ([3]; listed as L-fucose): 9 µM | IC50 [4, 13]: > 100 µM | IC50 ([5]; Table 3 summary of most active compounds, listed as L-fucose): 81 µM | IC50 ([8]; Table 3 summary of most active compounds, IC50, listed as L-fucose, read-out: SF268 Giloblast): 89 µM | IC50 [6, 13]: > 100 µM | IC50 [7]: > 100 µM

CON(C(C)CC(c1ccccc1)c1c(O)c2ccccc2oc1=O)C1OCC(O)C(O)C1O (mixture of isomers) [WARF Analog 15]
IC50 ([1]; Table 3 summary of most active compounds, IC50, listed as L-arabinose, read-out: H729 Colorectal): 97 µM | IC50 [2, 15]: 48 µM | IC50 (NCI/ADR-RES; listed as L-arabinose): 68 µM | IC50 ([3]; listed as L-arabinose): 49 µM | IC50 [4, 15]: 79 µM | IC50 [5, 15]: 76 µM | IC50 ([8]; Table 3 summary of most active compounds, IC50, listed as L-arabinose, read-out: SF268 Giloblast): 69 µM | IC50 [6, 15]: > 100 µM | IC50 ([7]; listed as L-arabinose): 51 µM

CON(C(C)CC(c1ccccc1)c1c(O)c2ccccc2oc1=O)C1OCC(O)C(O)C1O (mixture of isomers) [WARF Analog 22]
IC50 ([1]; Table 3 summary of most active compounds, IC50, listed as D-ribose, read-out: H729 Colorectal): 77 µM | IC50 [2, 16]: > 100 µM | IC50 (NCI/ADR-RES; listed as D-ribose): 66 µM | IC50 ([3]; listed as D-ribose): 27 µM | IC50 [4, 16]: 41 µM | IC50 [5, 16]: 60 µM | IC50 ([8]; Table 3 summary of most active compounds, IC50, listed as D-ribose, read-out: SF268 Giloblast): 72 µM | IC50 [6, 16]: > 100 µM | IC50 ([7]; listed as D-ribose): 44 µM

CON(C(C)CC(c1ccccc1)c1c(O)c2ccccc2oc1=O)C1OCC(O)C(O)C1O (mixture of isomers) [WARF Analog 25]
IC50 ([1]; Table 3 summary of most active compounds, IC50, listed as L-ribose, read-out: H729 Colorectal): 72 µM | IC50 [2, 17]: 72 µM | IC50 (NCI/ADR-RES; listed as L-ribose): 62 µM | IC50 ([3]; listed as L-ribose): 37 µM | IC50 [4, 17]: 45 µM | IC50 [5, 17]: 60 µM | IC50 ([8]; Table 3 summary of most active compounds, IC50, listed as L-ribose, read-out: SF268 Giloblast): > 100 µM | IC50 [6, 17]: > 100 µM

CON(C(C)CC(c1ccccc1)c1c(O)c2ccccc2oc1=O)C1OC(C)C(O)C(O)C1O (mixture of isomers) [WARF Analog 50]
IC50 ([1]; Table 3 summary of most active compounds, IC50, listed as 6-deoxy-D-glucose, read-out: H729 Colorectal): > 100 µM | IC50 [2, 13]: > 100 µM | IC50 (NCI/ADR-RES): > 100 µM | IC50 ([3]; listed as 6-deoxy-D-glucose): 14 µM | IC50 ([5]; Table 3 summary of most active compounds, listed as 6-deoxy-D-glucose): > 100 µM | IC50 ([8]; Table 3 summary of most active compounds, IC50, listed as 6-deoxy-D-glucose, read-out: SF268 Giloblast): > 100 µM | IC50 [6, 13]: > 100 µM

CON(C(C)CC(c1ccccc1)c1c(O)c2ccccc2oc1=O)C1O[C@H](COCc2ccccc2)[C@@H](OCc2ccccc2)[C@@H]1OCc1ccccc1 (some centres unmarked) [WARF Analog 42]
IC50 [1, 12]: 19 µM | IC50 [2, 13]: 27 µM | IC50 (NCI/ADR-RES): 20 µM | IC50 [3]: 11 µM | IC50 [4, 13]: 29 µM | IC50 [5, 13]: 27 µM | IC50 [8, 14]: 20 µM | IC50 [7]: 19 µM

CC(=O)CC(c1ccccc1)c1c(O)c2ccccc2oc1=O (centres unmarked) [WARF Analog A, 4-hydroxy-3-(3-oxo-1-phenylbutyl)-2H-1-benzopyran-2-one, reference compound]
IC50 ([1]; Homo sapiens, HT-29, read-out: H729 Colorectal): 735 µM | IC50 ([2]; Homo sapiens, A549, Table 3 summary of most active compounds): 781 µM | IC50 (NCI/ADR-RES; Homo sapiens): > 100 µM | IC50 ([3]; Homo sapiens, HCT-15): 543 µM | IC50 ([4]; Homo sapiens, MCF7, Table 3 summary of most active compounds): 301 µM | IC50 ([5]; Homo sapiens, SK-OV-3, Table 3 summary of most active compounds): 393 µM | IC50 ([8]; Homo sapiens, SF-268, read-out: SF268 Giloblast): 765 µM | IC50 ([6]; Homo sapiens, NCI-H460, Table 3 summary of most active compounds): 557 µM

Source: US8278436B2, “Glycosylated warfarin analogs and uses thereof” (priority 2008, dated 2012)
